Data reported in patent US11807644B2 (PMV Pharmaceuticals, Inc., priority 2020, dated 2023).

Target: T1, recombinant His-tag Y220C p53 DBD protein (Homo sapiens, UniProt P04637, Y220C)
T1 construct: recombinant His-tag Y220C p53 DBD protein (amino acids #˜94-312)
Test: In vitro DNA binding activity assay (TR-FRET): binding of His-tag Y220C p53 DBD to biotin-labeled consensus DNA
Type: biochemical
Details: SC150 = concentration to increase DNA binding by […], His-tag Y220C p53 DBD, biotin-labeled consensus DNA

| SMILES | Y220C SC150 (μM) |
| --- | --- |
| COCC(C)(C)n1ccc(C(=O)NCc2nc(-c3cc4c(N[C@@H]5CN(C)CC[C@@H]5F)cccc4n3CC(F)(F)F)no2)c1 [Compound 417B, N-{[3-(4-{[(3R,4S)-4-fluoro-1-methylpiperidin-3-yl]amino}-1-(2,2,2-trifluoroethyl)-1H-indol-2-yl)-1,2,4-oxadiazol-5-yl]methyl}-1-(1-methoxy-2-methylpropan-2-yl)-1H-pyrrole-3-carboxamide] | * (* = 0 μM ≤ SC150 < 0.1 μM) |
| CC1(n2ccc(C(=O)NCc3nc(-c4cc5c(N[C@@H]6CNCC[C@@H]6F)cccc5n4CC(F)(F)F)no3)c2)CCOCC1 [Compound 420B, N-{[3-(4-{[(3R,4S)-4-fluoropiperidin-3-yl]amino}-1-(2,2,2-trifluoroethyl)-1H-indol-2-yl)-1,2,4-oxadiazol-5-yl]methyl}-1-(4-methyloxan-4-yl)-1H-pyrrole-3-carboxamide] | * (* = 0 μM ≤ SC150 < 0.1 μM) |
| CN1CC[C@@H](Nc2cccc3c2cc(-c2noc(CNC(=O)c4ccc(C(C)(C)C)s4)n2)n3CC(F)(F)F)[C@@H](F)C1 [Compound 422B, 5-tert-butyl-N-[[3-[4-[[(3S,4R)-3-fluoro-1-methyl-4-piperidyl]amino]-1-(2,2,2-trifluoroethyl)indol-2-yl]-1,2,4-oxadiazol-5-yl]methyl]thiophene-2-carboxamide] | * (* = 0 μM ≤ SC150 < 0.1 μM) |
| CN1CC[C@@H](Nc2cccc3c2cc(-c2noc(CNC(=O)c4ccn(C(C)(C)C5CC5)c4)n2)n3CC(F)(F)F)[C@@H](F)C1 [Compound 423B, 1-(2-cyclopropylpropan-2-yl)-N-{[3-(4-{[(3S,4R)-3-fluoro-1-methylpiperidin-4-yl]amino}-1-(2,2,2-trifluoroethyl)-1H-indol-2-yl)-1,2,4-oxadiazol-5-yl]methyl}-1H-pyrrole-3-carboxamide] | * (* = 0 μM ≤ SC150 < 0.1 μM) |

Further lines, results first:

| Y220C SC150 (μM) | SMILES |
| --- | --- |
| * (* = 0 μM ≤ SC150 < 0.1 μM) | COCC(C)(C)n1ccc(C(=O)NCc2nc(-c3cc4c(N[C@H]5CN(C)CC[C@H]5F)cccc4n3CC(F)(F)F)no2)c1 [Compound 418B, N-{[3-(4-{[(3S,4R)-4-fluoro-1-methylpiperidin-3-yl]amino}-1-(2,2,2-trifluoroethyl)-1H-indol-2-yl)-1,2,4-oxadiazol-5-yl]methyl}-1-(1-methoxy-2-methylpropan-2-yl)-1H-pyrrole-3-carboxamide] |
| * (* = 0 μM ≤ SC150 < 0.1 μM) | CN1CC[C@@H](F)[C@@H](Nc2cccc3c2cc(-c2noc(CNC(=O)c4ccn(C5(C)CCOCC5)c4)n2)n3CC(F)(F)F)C1 [Compound 419B, N-{[3-(4-{[(3S,4R)-4-fluoro-1-methylpiperidin-3-yl]amino}-1-(2,2,2-trifluoroethyl)-1H-indol-2-yl)-1,2,4-oxadiazol-5-yl]methyl}-1-(4-methyloxan-4-yl)-1H-pyrrole-3-carboxamide] |
| * (* = 0 μM ≤ SC150 < 0.1 μM) | CC1(n2ccc(C(=O)NCc3nc(-c4cc5c(N[C@H]6CNCC[C@H]6F)cccc5n4CC(F)(F)F)no3)c2)CCOCC1 [Compound 421B, N-{[3-(4-{[(3S,4R)-4-fluoropiperidin-3-yl]amino}-1-(2,2,2-trifluoroethyl)-1H-indol-2-yl)-1,2,4-oxadiazol-5-yl]methyl}-1-(4-methyloxan-4-yl)-1H-pyrrole-3-carboxamide] |
| * (* = 0 μM ≤ SC150 < 0.1 μM) | CN1CC[C@@H](Nc2cccc3c2cc(-c2noc(CNC(=O)c4ccc(C(C)(C)O)s4)n2)n3CC(F)(F)F)[C@@H](F)C1 [Compound 424B, N-[[3-[4-[[(3S,4R)-3-fluoro-1-methyl-4-piperidyl]amino]-1-(2,2,2-trifluoroethyl)indol-2-yl]-1,2,4-oxadiazol-5-yl]methyl]-5-(1-hydroxy-1-methyl-ethyl)thiophene-2-carboxamide] |
